# Laboratory results taken from patent publication US20260069530A1, “METHODS OF TREATING PRIMARY LIVER TUMORS WITH NATURAL KILLER CELLS EXPRESSING A CYTOTOXIC RECEPTOR COMPLEX” (NKARTA, INC., priority 2018, published 2026).
# How the values were obtained:
# NKG2D ligands = assay: total NKG2D ligand expression on HCC cell lines, flow cytometry with NKG2D-Fc; type: cell-based, human
# Description: (§1) FIGS. 17A-17N relate to expression of total NKG2D ligands and PD-L1 in relation to sorafenib concentration. FIGS. 17A-17F depict flow cytometry data related to changes in total NKG2D ligand expression in the indicated tumor cell lines in response to various concentrations of sorafenib (total expression is based on the use of the NKG2D-Fc fusion, so detection is of any ligand NKG2D could bind). FIGS. 17G-17L depict flow cytometry data related to changes in PD-L1 expression in the indicated tumor cell lines in response to various concentrations of sorafenib. FIGS. 17M and 17N are line graphs that summarize the flow cytometry data.
# (§2) FIGS. 18A-18T relate to expression of total NKG2D ligands and PD-L1 in relation to Interferon gamma (IFNg) concentration. FIGS. 18A-18I depict flow cytometry data related to changes in total NKG2D ligand expression in the indicated tumor cell lines in response to various concentrations of IFNg (total expression is based on the use of the NKG2D-Fc fusion, so detection is of any ligand NKG2D could bind). […]
# (§3) To investigate a possible mechanism of action regarding the sensitivity of hepatocellular carcinoma cells to sorafenib, the expression of the total population of NKG2D ligands on each cell line was measured in response to various doses of sorafenib. The total population of NKG2D ligands was detected through the use of the NKG2D-Fc chimeric antibody. […]
# PD-L1 = PD-L1 expression on HCC cell lines, flow cytometry; type: cell-based, human
# Description: as §1, §2, §3
# Huh-7 = assay: sorafenib dose-response against HCC cell lines; conditions: read-out: EC50 (concentration to achieve 50% cytotoxicity); FIG. 7B
# SNU-387 cells = assay: sorafenib dose-response against HCC cell lines; conditions: read-out: EC50 (concentration to achieve 50% cytotoxicity); FIG. 7B
# HL60 cells = assay: HL60 leukemia cell growth in co-culture with NK cells, with or without HDAC inhibitor; type: cell-based; conditions: valproic acid added to culture with NK cells expressing the NKG2D CAR (FIG. 35B)
# Experimental: As discussed above, additional agents can be co-administered with engineered NK cells disclosed herein. For example, in several embodiments, histone deacetylase inhibitors are administered with engineered NK cells targeting an NKG2D ligand (or other tumor marker, such as CD123 or CD19). The leukemia cell line was grown alone as a control, co-cultured with NK cells expressing GFP, or co-cultured with NK cells expressing an NKG2D CAR as disclosed herein. By way of non-limiting example, the NKG2D CAR used in this example was NKG2D-OX40-[…]-mbIL15. […] According to additional embodiments, other HDAC inhibitors are used, such as romidepsin (e.g. FR901228), entinostat (e.g., MS-275) phenylbutyrate, belinostat (PDX101), sodium valproate, suberoylanilide hydroxamic acid, or combinations thereof.
# Experimental for HCC cells: NKX101 cells were generated by transduction with a bicistronic virus encoding NKG2D, an intracellular OX40 costimulatory domain, CD33 signaling domain, and membrane-bound IL-15, which supports prolonged cell survival and proliferation. […] Combination with a sub-EC50 concentration of the kinase inhibitor Sorafenib (used here as a non-limiting example of an additional anti-cancer agent), an approved agent for HCC, was tested for additive cytotoxic effect with at low E:T ratios of NKX101 NK cells in vitro at 48 hrs.
compound,measurement,setting,value
CNC(=O)c1cc(Oc2ccc(NC(=O)Nc3ccc(Cl)c(C(F)(F)F)c3)cc2)ccn1 [sorafenib],change in total NKG2D ligand expression,NKG2D ligands; various doses of sorafenib (FIG. 17M),does not appear to have a substantial impact on the NKG2D ligand expression
same,change in PD-L1 expression,PD-L1; 10 micromolar sorafenib (FIG. 17N),many of the cell lines show an increase in PD-L1 expression
same,cytotoxic effect of combination,HCC cells,additive effect
same,EC50,Huh-7,7.96 µM
same,EC50,SNU-387 cells,29.4 µM
interferon gamma: inflammatory cytokine secreted by NK cells once activated,change in total NKG2D ligand expression,"NKG2D ligands; various concentrations of interferon gamma, nine HCC lines (FIG. 18S)",there does not appear to be a clear impact of interferon gamma on the expression of the total pool of NKG2D ligands
same,change in PD-L1 expression,PD-L1; higher doses of interferon gamma (FIG. 18T),several cell lines seem to show a trend towards increasing PD-L1 expression with the higher doses of interferon gamma
CCCC(CCC)C(=O)O [valproic acid],HL60 cell growth,HL60 cells,synergistically interacted with the NK cells expressing the NKG2D CAR dramatically suppress HL-60 cell growth
